Results published in patent US20240368156A1, “2-AZABICYCLO[2.2.1]HEPTANE KRAS INHIBITORS” (INCYTE CORPORATION, priority 2023, published 2024).

Key:
KRAS G12D = KRAS G12D (Homo sapiens, UniProt P01116, G12D); experiment: GDP-GTP exchange assay (bodipy-GDP/GppNHp, SOS1), KRAS G12D; assay type: biochemical; details: 2.5 nM bodipy-loaded KRAS G12D, 4 h pre-incubation, 2 h reaction with GppNHp and SOS1; for certain compounds the most potent isomer is quoted; read-out: KRAS_G12D exchange assay IC50
Outline: (§1)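 Bodipy-GDP-loaded KRAS G12D or G12V (2.5 nM) pre-incubated 4 h at r.t. with inhibitor in Hepes pH 7.5, 10 mM MgCl2, then exchange started with 500 μM GppNHp and 150 nM SOS1 (final); 2 h (G12D) or 3 h (G12V). Fluorescence at 485/520 nm; IC50 from four-parameter logistic fit.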

KRAS G12V = KRAS G12V (Homo sapiens, UniProt P01116, G12V); experiment: GDP-GTP exchange assay (bodipy-GDP/GppNHp, SOS1), KRAS G12V; assay type: biochemical; details: 2.5 nM bodipy-loaded KRAS G12V, 3 h incubation after adding GppNHp-SOS1; for certain compounds the most potent isomer is quoted; read-out: KRAS_G12V exchange assay IC50
Chain of KRAS G12V (P01116 1-188 isoform P01116-2 G12V): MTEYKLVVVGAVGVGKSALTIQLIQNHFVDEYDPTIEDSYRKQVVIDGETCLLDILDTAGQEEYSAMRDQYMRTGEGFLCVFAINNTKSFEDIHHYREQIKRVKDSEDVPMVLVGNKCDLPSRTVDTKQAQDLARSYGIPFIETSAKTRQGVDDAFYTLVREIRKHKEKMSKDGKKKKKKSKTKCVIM
Outline: as §1

Chain of KRAS G12D (P01116 1-188 isoform P01116-2 G12D): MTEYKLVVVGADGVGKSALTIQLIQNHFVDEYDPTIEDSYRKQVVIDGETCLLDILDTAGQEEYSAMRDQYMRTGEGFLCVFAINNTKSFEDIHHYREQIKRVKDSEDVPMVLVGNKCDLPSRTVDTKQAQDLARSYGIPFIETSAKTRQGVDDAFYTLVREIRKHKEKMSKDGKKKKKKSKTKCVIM

Row | Compound | IC50 (KRAS G12D) | IC50 (KRAS G12V)
1 | [2H]C([2H])([2H])O[C@H]1C[C@H]2C[C@@H]1[C@H](c1cc3c(C)nc4c(F)c(-c5cccc(Cl)c5Cl)c(CCC#N)cc4c3n1C1[C@H]3CN[C@@H]1C3)N2C(=O)C1CC1 (stereo partly drawn) [Example 23, 3-(1-((1R,4R)-2-azabicyclo[2.1.1]hexan-5-yl)-2-((1R,3R,4R,5S)-2-(cyclopropanecarbonyl)-5-(methoxy-d3)-2-azabicyclo[2.2.1]heptan-3-yl)-7-(2,3-dichlorophenyl)-6-fluoro-4-methyl-1H-pyrrolo[3,2-c]quinolin-8-yl)propanenitrile] | ≤ 100 nM | ≤ 100 nM
2 | Cc1nc2c(F)c(-c3cccc(Cl)c3Cl)c(CCC#N)cc2c2c1cc([C@H]1[C@H]3C[C@H](C[C@@H]3C)N1C(=O)C1CC1)n2C1[C@H]2CN[C@@H]1C2 (stereo partly drawn) [Example 19, 3-(1-((1R,4R)-2-azabicyclo[2.1.1]hexan-5-yl)-2-((1S,3R,4S,5S)-2-(cyclopropanecarbonyl)-5-methyl-2-azabicyclo[2.2.1]heptan-3-yl)-7-(2,3-dichlorophenyl)-6-fluoro-4-methyl-1H-pyrrolo[3,2-c]quinolin-8-yl)propanenitrile] | ≤ 100 nM | ≤ 100 nM
3 | Cc1nc2c(F)c(-c3cccc(Cl)c3Cl)c(CCC#N)cc2c2c1cc([C@H]1[C@H]3C[C@H](C[C@H]3F)N1C(=O)C1CC1)n2C1[C@H]2CN[C@@H]1C2 (stereo partly drawn) [Example 17, 3-(1-((1R,4R)-2-azabicyclo[2.1.1]hexan-5-yl)-2-((1R,3R,4R,5R)-2-(cyclopropanecarbonyl)-5-fluoro-2-azabicyclo[2.2.1]heptan-3-yl)-7-(2,3-dichlorophenyl)-6-fluoro-4-methyl-1H-pyrrolo[3,2-c]quinolin-8-yl)propanenitrile] | ≤ 100 nM | ≤ 100 nM
4 | [2H]C([2H])([2H])O[C@H]1C[C@H]2C[C@@H]1[C@H](c1cc3c(C)nc4c(F)c(-c5cccc(Cl)c5Cl)c(CCC#N)cc4c3n1[C@H]1[C@H]3CN[C@@H]1C3)N2C(=O)C1CC1 (atropisomer, axis not shown; (Ra)) [Example 4, 3-((Ra)-1-((1R,4R,5S)-2-Azabicyclo[2.1.1]hexan-5-yl)-2-((1R,3R,4R,5S)-2-(cyclopropanecarbonyl)-5-(methoxy-d3)-2-azabicyclo[2.2.1]heptan-3-yl)-7-(2,3-dichlorophenyl)-6-fluoro-4-methyl-1H-pyrrolo[3,2-c]quinolin-8-yl)propanenitrile] | ≤ 100 nM | ≤ 100 nM
5 | Cc1nc2c(F)c(-c3cccc(Cl)c3Cl)c(CCC#N)cc2c2c1cc([C@H]1[C@H]3C[C@H](C[C@@H]3F)N1C(=O)C1CC1)n2[C@H]1[C@H]2CN[C@@H]1C2 (atropisomer, axis not shown; (Ra)) [Example 2, 3-((Ra)-1-((1R,4R,5S)-2-Azabicyclo[2.1.1]hexan-5-yl)-2-((1R,3R,4R,5S)-2-(cyclopropanecarbonyl)-5-fluoro-2-azabicyclo[2.2.1]heptan-3-yl)-7-(2,3-dichlorophenyl)-6-fluoro-4-methyl-1H-pyrrolo[3,2-c]quinolin-8-yl)propanenitrile] | ≤ 100 nM | ≤ 100 nM
6 | Cc1nc2c(F)c(-c3cccc(Cl)c3Cl)c(CCC#N)cc2c2c1cc([C@H]1[C@H]3C[C@H](C[C@@H]3Oc3cccnc3)N1C(=O)C1CC1)n2C1[C@H]2CN[C@@H]1C2 (stereo partly drawn) [Example 27, 3-(1-((1R,4R)-2-azabicyclo[2.1.1]hexan-5-yl)-2-((1R,3R,4R,5S)-2-(cyclopropanecarbonyl)-5-(pyridin-3-yloxy)-2-azabicyclo[2.2.1]heptan-3-yl)-7-(2,3-dichlorophenyl)-6-fluoro-4-methyl-1H-pyrrolo[3,2-c]quinolin-8-yl)propanenitrile] | ≤ 100 nM | ≤ 100 nM
7 | Cc1nc2c(F)c(-c3cccc(Cl)c3Cl)c(CCC#N)cc2c2c1cc([C@H]1[C@H]3C[C@H](C[C@@H]3Oc3cccnc3)N1C(=O)C1CC1)n2[C@H]1[C@H]2CN[C@@H]1C2 (atropisomer, axis not shown; (Ra)) [Example 5, 3-((Ra)-1-((1R,4R,5S)-2-Azabicyclo[2.1.1]hexan-5-yl)-2-((1R,3R,4R,5S)-2-(cyclopropanecarbonyl)-5-(pyridin-3-yloxy)-2-azabicyclo[2.2.1]heptan-3-yl)-7-(2,3-dichlorophenyl)-6-fluoro-4-methyl-1H-pyrrolo[3,2-c]quinolin-8-yl)propanenitrile] | ≤ 100 nM | ≤ 100 nM
8 | CO[C@@H]1C[C@H]2C[C@@H]1[C@H](c1cc3c(C)nc4c(F)c(-c5cccc(Cl)c5Cl)c(CCC#N)cc4c3n1C1[C@H]3CN[C@@H]1C3)N2C(=O)C1CC1 (stereo partly drawn) [Example 22, 3-(1-((1R,4R)-2-azabicyclo[2.1.1]hexan-5-yl)-2-((1R,3R,4R,5R)-2-(cyclopropanecarbonyl)-5-methoxy-2-azabicyclo[2.2.1]heptan-3-yl)-7-(2,3-dichlorophenyl)-6-fluoro-4-methyl-1H-pyrrolo[3,2-c]quinolin-8-yl)propanenitrile] | 100 to 1000 nM | 100 to 1000 nM
9 | COC(=O)N1[C@@H]2C[C@@H]([C@@H](C(F)F)C2)[C@@H]1c1cc2c(C)nc3c(F)c(-c4cccc(Cl)c4Cl)c(CCC#N)cc3c2n1[C@H]1[C@H]2CN[C@@H]1C2 (atropisomer, axis not shown; (Ra)) [Example 43, Methyl (1R,3R,4S,5S)-3-((Ra)-1-((1R,4R,5S)-2-azabicyclo[2.1.1]hexan-5-yl)-8-(2-cyanoethyl)-7-(2,3-dichlorophenyl)-6-fluoro-4-methyl-1H-pyrrolo[3,2-c]quinolin-2-yl)-5-(difluoromethyl)-2-azabicyclo[2.2.1]heptane-2-carboxylate] | ≤ 100 nM | ≤ 100 nM
10 | Cc1nc2c(F)c(-c3cccc(Cl)c3Cl)c(CCC#N)cc2c2c1cc([C@H]1[C@H]3C[C@H](C[C@@H]3OC3CC3)N1C(=O)C1CC1)n2[C@H]1[C@H]2CN[C@@H]1C2 [Example 36, 3-(1-((1R,4R,5S)-2-Azabicyclo[2.1.1]hexan-5-yl)-2-((1R,3R,4R,5S)-2-(cyclopropanecarbonyl)-5-cyclopropoxy-2-azabicyclo[2.2.1]heptan-3-yl)-7-(2,3-dichlorophenyl)-6-fluoro-4-methyl-1H-pyrrolo[3,2-c]quinolin-8-yl)propanenitrile] | ≤ 100 nM | ≤ 100 nM
